Measurements published in patent US10385069B2, “Imidazo[2,1-B]thiazole and 5,6-dihydroimidazo[2,1-B]thiazole derivatives useful as S100-inhibitors” (Active Biotech AB, priority 2015, dated 2019).

Target: T1, interaction between biotinylated human S100A9 and human RAGE-Fc (Homo sapiens, UniProt P06702)
T1 construct: made in house; host or cells: E. coli
T1 sequence (P06702 1-114): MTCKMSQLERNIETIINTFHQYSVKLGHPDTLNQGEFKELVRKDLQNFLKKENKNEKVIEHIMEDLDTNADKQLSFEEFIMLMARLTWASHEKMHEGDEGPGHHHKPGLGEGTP
Experiment: AlphaScreen inhibition assay, biot-hS100A9:hRAGE-Fc
Format: binding
Details: biot-hS100A9 pre-incubated with compound 1 h, assay buffer with CaCl2 and ZnCl2
Method in brief: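 Biotinylated human S100A9, preincubated with compound, binds human RAGE-Fc on protein A Acceptor beads in HBS-P with CaCl2 and ZnCl2; streptavidin Donor beads added, AlphaScreen signal read. Protein levels set by cross-titration; beads 20 μg/mL final. Percent inhibition versus DMSO control; IC50 from varied compound concentrations.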

`COCCN1CCN(Cc2c(C(=O)O)nc3sc4c(n23)CCC(C(C)(C)C)C4)CC1` (stereo not drawn) [Example 272, 10-tert-Butyl-3-{[4-(2-methoxyethyl)piperazin-1-yl]methyl}-7-thia-2,5-diazatricyclo[6.4.0.0^2,6]dodeca-1(8),3,5-triene-4-carboxylic acid] was tested, and the IC50 was 1.77 µM.

In the case of `CN1CCN(Cc2c(C(=O)O)nc3sc4c(n23)CCC(C(C)(C)C)C4)CC1` (stereo not drawn) [Example 273, 10-tert-Butyl-3-[(4-methylpiperazin-1-yl)methyl]-7-thia-2,5-diazatricyclo[6.4.0.0^2,6]dodeca-1(8),3,5-triene-4-carboxylic acid], the IC50 is reported as 1.49 µM.

Work on `CC(=O)N1CCN(Cc2c(C(=O)O)nc3sc4c(n23)CCC(C(C)(C)C)C4)CC1` (stereo not drawn) [Example 275, 3-[(4-Acetylpiperazin-1-yl)methyl]-10-tert-butyl-7-thia-2,5-diazatricyclo[6.4.0.0^2,6]dodeca-1(8),3,5-triene-4-carboxylic acid] yielded an IC50 of 1.09 µM.

`CN1CCN(c2c(C(=O)O)nc3sc4c(Cl)c(F)ccc4n23)CC1` [Example 276, 9-Chloro-10-fluoro-3-(4-methylpiperazin-1-yl)-7-thia-2,5-diazatricyclo[6.4.0.0^2,6]dodeca-1(8),3,5,9,11-pentaene-4-carboxylic acid] gave an IC50 of 0.39 µM.

Compound `O=C(O)c1nc2sc3c(Cl)c(F)ccc3n2c1NCCN1CCCC1` [Example 277, 9-Chloro-10-fluoro-3-{[2-(pyrrolidin-1-yl)ethyl]amino}-7-thia-2,5-diazatricyclo[6.4.0.0^2,6]dodeca-1(8),3,5,9,11-pentaene-4-carboxylic acid] has an IC50 of 1.05 µM.

Work on `O=C(NS(=O)(=O)c1ccccc1)C1CN2C(=N1)Sc1c2ccc(F)c1Cl` (stereo not drawn) [Example 278, N-(Benzenesulfonyl)-9-chloro-10-fluoro-7-thia-2,5-diazatricyclo[6.4.0.0^2,6]dodeca-1(8),5,9,11-tetraene-4-carboxamide] yielded an IC50 of 0.17 µM.

With `CN(C)c1c(C(=O)O)nc2sc3c(n12)CC(C)(C)CC3(C)C` [Example 280, 3-(Dimethylamino)-9,9,11,11-tetramethyl-7-thia-2,5-diazatricyclo[6.4.0.0^2,6]dodeca-1(8),3,5-triene-4-carboxylic acid] the IC50 was 0.42 µM.

`O=C(O)c1nc2sc3c(Cl)c(F)ccc3n2c1C1CNC1` [Example 281, 3-(Azetidin-3-yl)-9-chloro-10-fluoro-7-thia-2,5-diazatricyclo[6.4.0.0^2,6]dodeca-1(8),3,5,9,11-pentaene-4-carboxylic acid] showed an IC50 of 1.8 µM.

`CC(=O)N1CCN(c2c(C(=O)O)nc3sc4c(n23)CC(C)(C)CC4(C)C)CC1` [Example 284, 3-(4-Acetylpiperazin-1-yl)-9,9,11,11-tetramethyl-7-thia-2,5-diazatricyclo[6.4.0.0^2,6]dodeca-1(8),3,5-triene-4-carboxylic acid] was tested, and the IC50 was 0.7 µM.

`O=C(O)C1CN2C(=N1)Sc1c2cc(OCCN2CCOCC2)c(Cl)c1Cl` (stereo not drawn) [Example 285, 9,10-Dichloro-11-[2-(morpholin-4-yl)ethoxy]-7-thia-2,5-diazatricyclo[6.4.0.0^2,6]dodeca-1(8),5,9,11-tetraene-4-carboxylic acid] gave an IC50 of 1.27 µM.

`C=C(C)c1c(C(=O)O)nc2sc3c(n12)CC(C)(C)CC3(C)C` [Example 287, 9,9,11,11-Tetramethyl-3-(prop-1-en-2-yl)-7-thia-2,5-diazatricyclo[6.4.0.0^2,6]dodeca-1(8),3,5-triene-4-carboxylic acid] showed an IC50 of 0.76 µM.

`CN1CCN(c2c(C(=O)O)nc3sc4c(n23)CC(C)(C)CC4(C)C)CC1` [Example 288, 9,9,11,11-Tetramethyl-3-(4-methylpiperazin-1-yl)-7-thia-2,5-diazatricyclo[6.4.0.0^2,6]dodeca-1(8),3,5-triene-4-carboxylic acid] showed an IC50 of 1.06 µM.

For `O=C(O)c1cn2c(n1)sc1c(F)c(Cl)c(OCCN3CCOCC3)cc12` [Example 289, 10-Chloro-9-fluoro-11-[2-(morpholin-4-yl)ethoxy]-7-thia-2,5-diazatricyclo[6.4.0.0^2,6]dodeca-1(8),3,5,9,11-pentaene-4-carboxylic acid], the IC50 was 0.82 µM.

Work on `CN1CC(c2c(C(=O)O)nc3sc4c(Cl)c(F)ccc4n23)C1` [Example 290, 9-Chloro-10-fluoro-3-(1-methylazetidin-3-yl)-7-thia-2,5-diazatricyclo[6.4.0.0^2,6]dodeca-1(8),3,5,9,11-pentaene-4-carboxylic acid] yielded an IC50 of 0.94 µM.

`O=C(O)c1nc2sc3c(Cl)c(F)ccc3n2c1C1CC1` [Example 291, 9-Chloro-3-cyclopropyl-10-fluoro-7-thia-2,5-diazatricyclo[6.4.0.0^2,6]dodeca-1(8),3,5,9,11-pentaene-4-carboxylic acid] showed an IC50 of 0.1 µM.

Work on `CSc1c(C(=O)O)nc2sc3c(n12)CC(C)(C)CC3(C)C` [Example 292, 9,9,11,11-Tetramethyl-3-(methylsulfanyl)-7-thia-2,5-diazatricyclo[6.4.0.0^2,6]dodeca-1(8),3,5-triene-4-carboxylic acid] yielded an IC50 of 0.29 µM.

In the case of `CS(=O)(=O)N1CC(c2c(C(=O)O)nc3sc4c(Cl)c(F)ccc4n23)C1` [Example 293, 9-Chloro-10-fluoro-3-(1-methanesulfonylazetidin-3-yl)-7-thia-2,5-diazatricyclo[6.4.0.0^2,6]dodeca-1(8),3,5,9,11-pentaene-4-carboxylic acid], the IC50 is reported as 0.5 µM.

`CC1(C(=O)NS(C)(=O)=O)CN2C(=N1)Sc1c2ccc(F)c1Cl` (stereo not drawn) [Example 294, 9-Chloro-10-fluoro-N-methanesulfonyl-4-methyl-7-thia-2,5-diazatricyclo[6.4.0.0^2,6]dodeca-1(8),5,9,11-tetraene-4-carboxamide] showed an IC50 of 0.78 µM.
